According to patent publication US7858044B2, “Multi-well plate providing a high-density storage and assay platform” (Nexus Biosystems, Inc., priority 2003, dated 2010):

Molecular target: recombinant human CYP 3A4 (Homo sapiens, UniProt P08684)
Assay: CYP 3A4 isozyme inhibition screen with fluorogenic substrate BOMR in 3456-well plate
Conditions: concentration series

recombinant human CYP 3A4, sequence (P08684 whole entry): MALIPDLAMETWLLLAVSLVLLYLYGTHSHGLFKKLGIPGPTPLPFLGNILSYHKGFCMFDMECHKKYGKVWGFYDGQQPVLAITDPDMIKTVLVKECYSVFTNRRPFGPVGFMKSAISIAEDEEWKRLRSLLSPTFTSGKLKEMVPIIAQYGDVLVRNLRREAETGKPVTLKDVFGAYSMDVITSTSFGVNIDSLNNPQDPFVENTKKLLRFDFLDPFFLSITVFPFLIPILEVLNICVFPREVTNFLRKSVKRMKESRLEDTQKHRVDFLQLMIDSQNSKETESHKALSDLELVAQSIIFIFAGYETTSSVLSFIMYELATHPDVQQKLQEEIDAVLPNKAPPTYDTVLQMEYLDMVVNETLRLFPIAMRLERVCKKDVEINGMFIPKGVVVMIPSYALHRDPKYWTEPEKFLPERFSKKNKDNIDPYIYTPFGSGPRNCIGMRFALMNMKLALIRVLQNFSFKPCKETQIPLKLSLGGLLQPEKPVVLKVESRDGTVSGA

C[C@]12CC[C@H]3[C@@H](CCC4=CC(=O)CC[C@@]43C)[C@@H]1CC[C@@H]2O [testosterone]
Potentiation of CYP 3A4 isozyme: Potentiation
